Experimental data from PubChem BioAssay AID2060621 (Molecular Pharmacology Branch, DTP, NCI, 2025).

System: 324938-238-R-J1-PDC complex spheroids viability
Assay: Anticancer human tumor 324938-238-R-J1-PDC patient-derived bladder carcinoma cell line growth inhibition [CLK]
Settings: for IC50: curve of first compound; for viability, T/C: stronger effect = lower value
In short: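 Patient-derived tumor cells grown as complex spheroids with HUVEC endothelial cells and mesenchymal stem cells, treated with drug combinations. Concentrations descend in half-log steps from near clinical Cmax, or from 10 microM if Cmax unknown.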

[1] = second compound 0.0316 µM, first compound 0.00316 µM
[2] = second compound 0.0316 µM, first compound 0.01 µM
[3] = second compound 0.0316 µM, first compound 0.0316 µM
[4] = second compound 0.0316 µM, first compound 0.1 µM
[5] = second compound 0.1 µM, first compound 0.00316 µM
[6] = second compound 0.1 µM, first compound 0.01 µM
[7] = second compound 0.1 µM, first compound 0.0316 µM
[8] = second compound 0.1 µM, first compound 0.1 µM
[9] = second compound 0.316 µM, first compound 0.00316 µM
[10] = second compound 0.316 µM, first compound 0.01 µM
[11] = second compound 0.316 µM, first compound 0.0316 µM
[12] = second compound 0.316 µM, first compound 0.1 µM
[13] = second compound 1 µM, first compound 0.00316 µM
[14] = second compound 1 µM, first compound 0.01 µM
[15] = second compound 1 µM, first compound 0.0316 µM
[16] = second compound 1 µM, first compound 0.1 µM
[17] = second compound 3.16 µM, first compound 0.00316 µM
[18] = second compound 3.16 µM, first compound 0.01 µM
[19] = second compound 3.16 µM, first compound 0.0316 µM
[20] = second compound 3.16 µM, first compound 0.1 µM
[21] = second compound 10 µM, first compound 0.00316 µM
[22] = second compound 10 µM, first compound 0.01 µM
[23] = second compound 10 µM, first compound 0.0316 µM
[24] = second compound 10 µM, first compound 0.1 µM
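Also: viability read after seven days of drug exposure.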
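For viability, T/C in this document: 100% = DMSO vehicle control wells.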

Cn1ncnc1[C@H]1c2n[nH]c(=O)c3cc(F)cc(c23)N[C@@H]1c1ccc(F)cc1 + CN1CCN(c2cc(C(=O)Nc3cc4cc(-c5cnn(C)c5)ccc4cn3)ccn2)CC1
IC50 (second compound 0.0316 µM): 8.66 nM | IC50 (second compound 0.1 µM): 1.53 nM | IC50 (second compound 0.316 µM): < 0.316 nM | IC50 (second compound 1 µM): < 0.316 nM | IC50 (second compound 3.16 µM): < 0.316 nM | IC50 (second compound 10 µM): < 0.316 nM | viability, T/C (second compound 0.0316 µM, first compound 0.000316 µM): 78% | viability, T/C (second compound 0.0316 µM, first compound 0.001 µM): 74% | viability, T/C [1]: 58.2% | viability, T/C [2]: 51.9% | viability, T/C [3]: 32.5% | viability, T/C [4]: 24.4% | viability, T/C (second compound 0.1 µM, first compound 0.000316 µM): 57.5% | viability, T/C (second compound 0.1 µM, first compound 0.001 µM): 54.8% | viability, T/C [5]: 43.6% | viability, T/C [6]: 32.7% | viability, T/C [7]: 27% | viability, T/C [8]: 19.8% | viability, T/C (second compound 0.316 µM, first compound 0.000316 µM): 23.8% | viability, T/C (second compound 0.316 µM, first compound 0.001 µM): 22.4% | viability, T/C [9]: 23.1% | viability, T/C [10]: 21.2% | viability, T/C [11]: 18.5% | viability, T/C [12]: 15% | viability, T/C (second compound 1 µM, first compound 0.000316 µM): 0.86% | viability, T/C (second compound 1 µM, first compound 0.001 µM): 0.77% | viability, T/C [13]: 0.99% | viability, T/C [14]: 0.51% | viability, T/C [15]: 0.6% | viability, T/C [16]: 1.4% | viability, T/C (second compound 3.16 µM, first compound 0.000316 µM): 0.15% | viability, T/C (second compound 3.16 µM, first compound 0.001 µM): 0.2% | viability, T/C [17]: 0.14% | viability, T/C [18]: 0.09% | viability, T/C [19]: 0.12% | viability, T/C [20]: 0.14% | viability, T/C (second compound 10 µM, first compound 0.000316 µM): 0.07% | viability, T/C (second compound 10 µM, first compound 0.001 µM): 0.13% | viability, T/C [21]: 0.16% | viability, T/C [22]: 0.12% | viability, T/C [23]: 0.12% | viability, T/C [24]: 0.19%

CC(C)CC(NC(=O)C(Cc1ccccc1)NC(=O)c1cnccn1)B(O)O (stereo unspecified) + CN1CCN(c2cc(C(=O)Nc3cc4cc(-c5cnn(C)c5)ccc4cn3)ccn2)CC1
IC50 (second compound 0.0316 µM): 1.29 nM | IC50 (second compound 0.1 µM): < 0.949 nM | IC50 (second compound 0.316 µM): < 0.949 nM | IC50 (second compound 1 µM): < 0.949 nM | IC50 (second compound 3.16 µM): < 0.949 nM | IC50 (second compound 10 µM): < 0.949 nM | viability, T/C (second compound 0.0316 µM, first compound 0.000949 µM): 67% | viability, T/C (second compound 0.0316 µM, first compound 0.003 µM): 2.89% | viability, T/C (second compound 0.0316 µM, first compound 0.00949 µM): 0.33% | viability, T/C (second compound 0.0316 µM, first compound 0.03 µM): 0.33% | viability, T/C (second compound 0.0316 µM, first compound 0.0949 µM): 0.22% | viability, T/C (second compound 0.0316 µM, first compound 0.3 µM): 0.18% | viability, T/C (second compound 0.1 µM, first compound 0.000949 µM): 46.9% | viability, T/C (second compound 0.1 µM, first compound 0.003 µM): 2.21% | viability, T/C (second compound 0.1 µM, first compound 0.00949 µM): 0.38% | viability, T/C (second compound 0.1 µM, first compound 0.03 µM): 0.33% | viability, T/C (second compound 0.1 µM, first compound 0.0949 µM): 0.18% | viability, T/C (second compound 0.1 µM, first compound 0.3 µM): 0.32% | viability, T/C (second compound 0.316 µM, first compound 0.000949 µM): 11.1% | viability, T/C (second compound 0.316 µM, first compound 0.003 µM): 0.71% | viability, T/C (second compound 0.316 µM, first compound 0.00949 µM): 0.31% | viability, T/C (second compound 0.316 µM, first compound 0.03 µM): 0.2% | viability, T/C (second compound 0.316 µM, first compound 0.0949 µM): 0.15% | viability, T/C (second compound 0.316 µM, first compound 0.3 µM): 0.17% | viability, T/C (second compound 1 µM, first compound 0.000949 µM): 0.28% | viability, T/C (second compound 1 µM, first compound 0.003 µM): 0.27% | viability, T/C (second compound 1 µM, first compound 0.00949 µM): 0.18% | viability, T/C (second compound 1 µM, first compound 0.03 µM): 0.16% | viability, T/C (second compound 1 µM, first compound 0.0949 µM): 0.44% | viability, T/C (second compound 1 µM, first compound 0.3 µM): 0.22% | viability, T/C (second compound 3.16 µM, first compound 0.000949 µM): 0.23% | viability, T/C (second compound 3.16 µM, first compound 0.003 µM): 0.24% | viability, T/C (second compound 3.16 µM, first compound 0.00949 µM): 0.24% | viability, T/C (second compound 3.16 µM, first compound 0.03 µM): 0.1% | viability, T/C (second compound 3.16 µM, first compound 0.0949 µM): 0.18% | viability, T/C (second compound 3.16 µM, first compound 0.3 µM): 0.17% | viability, T/C (second compound 10 µM, first compound 0.000949 µM): 0.71% | viability, T/C (second compound 10 µM, first compound 0.003 µM): 0.21% | viability, T/C (second compound 10 µM, first compound 0.00949 µM): 0.18% | viability, T/C (second compound 10 µM, first compound 0.03 µM): 0.22% | viability, T/C (second compound 10 µM, first compound 0.0949 µM): 0.26% | viability, T/C (second compound 10 µM, first compound 0.3 µM): 0.25%

COc1c(OCCCN2CCOCC2)ccc2c3n(c(=NC(=O)c4cnc(N)nc4)nc12)CCN3 + CNC(=O)c1ccc(Nc2nc(OC3CCCC3)c3c(-c4ccc5nc(C)oc5c4)c[nH]c3n2)c(OC)c1
IC50 (second compound 0.0316 µM): 21.5 nM | IC50 (second compound 0.1 µM): < 3.16 nM | IC50 (second compound 0.316 µM): < 3.16 nM | IC50 (second compound 1 µM): < 3.16 nM | IC50 (second compound 3.16 µM): < 3.16 nM | IC50 (second compound 10 µM): < 3.16 nM | viability, T/C [1]: 72.8% | viability, T/C [2]: 66.1% | viability, T/C [3]: 41.3% | viability, T/C [4]: 19.4% | viability, T/C (second compound 0.0316 µM, first compound 0.316 µM): 7.32% | viability, T/C (second compound 0.0316 µM, first compound 1 µM): 0.92% | viability, T/C [5]: 36.3% | viability, T/C [6]: 34.7% | viability, T/C [7]: 32.4% | viability, T/C [8]: 19.4% | viability, T/C (second compound 0.1 µM, first compound 0.316 µM): 6.56% | viability, T/C (second compound 0.1 µM, first compound 1 µM): 1.65% | viability, T/C [9]: 15.5% | viability, T/C [10]: 12.7% | viability, T/C [11]: 10.2% | viability, T/C [12]: 4.98% | viability, T/C (second compound 0.316 µM, first compound 0.316 µM): 2.15% | viability, T/C (second compound 0.316 µM, first compound 1 µM): 0.5% | viability, T/C [13]: 15.6% | viability, T/C [14]: 12.1% | viability, T/C [15]: 6.92% | viability, T/C [16]: 4.04% | viability, T/C (second compound 1 µM, first compound 0.316 µM): 1.17% | viability, T/C (second compound 1 µM, first compound 1 µM): 0.45% | viability, T/C [17]: 15.5% | viability, T/C [18]: 12.8% | viability, T/C [19]: 8.33% | viability, T/C [20]: 3.11% | viability, T/C (second compound 3.16 µM, first compound 0.316 µM): 0.87% | viability, T/C (second compound 3.16 µM, first compound 1 µM): 0.39% | viability, T/C [21]: 14.3% | viability, T/C [22]: 10.3% | viability, T/C [23]: 6.72% | viability, T/C [24]: 3.94% | viability, T/C (second compound 10 µM, first compound 0.316 µM): 1.19% | viability, T/C (second compound 10 µM, first compound 1 µM): 0.48%
